Measurements as given in patent US5998437A, “Benzimidazole derivatives” (Otsuka Pharmaceutical Co., Ltd., priority 1995, dated 1999).
Where two headings read alike, the source gives them in different places.

Legend:
[1] = biological target: T1, cGMP-PDE (Homo sapiens, UniProt O76074); test: Activity for inhibiting cGMP PDE (PDE partially purified from human platelets, FI fraction); format: biochemical; settings: 0.4 μM of [3H]-cGMP
T1 construct: Separation and partial purification of PDE (phosphodiesterase) from human platelets; from tissue; host or cells: human platelets (supernatant, DEAE-cellulose FI fraction)
Experimental: (1) Measurement of the Activity for Inhibiting cGMP PDE
Separation and partial purification of PDE (phosphodiesterase) from human platelets, and measurement of the activity for inhibiting cGMP PDE were conducted by the method of Hidaka, et al. [Biochimica et Biophysica Acta, Vol. 429, (1976), pp. 485-497]. The platelets obtained from human healthy adult were washed, and suspended in TRIS-buffer solution, then said suspension was treated by centrifugal separation, the supernatant was subjected to a DEAE-cellulose treatment and fractionated into FI to FIII fractions by a method of concentration gradient of sodium acetate. Thus obtained FI fraction was used as the sample of cGMP-PDE. The activity for inhibiting cGMP-PDE was measured by using 0.4 μM of [^3 H]-cGMP.

[2] = tested on: rat A10 cells; test: Activity for inhibiting proliferation of rat A10 cells ([3H]-thymidine uptake); format: cell-based; settings: read-out: Activity for inhibiting proliferation of rat A10 cells [IC50 (μM)]
Experimental: (2) Measurement of the Activity for Inhibiting Proliferation of Rat A10 Cells
(§1) Test was conducted by the modified method of N. Morisaki [Atherosclerosis, Vol. 71, (1988), pp. 165-171]. The rat A10 cells (purchased from Dainippon Pharmaceutical Co., Ltd.) were inoculated on a 24 wells immunoplate at a density of 10,000 cells/well, and were cultured in 10% FBS (fetal bovine serum) for 2 days, and in order to introduce the cells into the resting stage, the cells were further cultured in a serum-free medium for 2 days. After that, 1% FBS was added thereto for stimulating the proliferation, of the cells and at the same time, a test compound and 0.5 μCi/well of [^3 H]-thymidine were added. As to the index of synthesized amount of DNA, the quantity of [^3 H]-thymidine being uptaken by the cells was measured at the time of 24 hours after the final cultivation was started.

[3] = tested on: human fibroblast; test: Activity for inhibiting proliferation of the human fibroblast ([3H]-thymidine uptake); format: cell-based
Experimental: as §1
(3) Measurement of the Activity for Inhibiting Proliferation of the Human Fibroblast
Similar to the activity for inhibiting proliferation of rat A10 cells as mentioned above, the activity for inhibiting proliferation of the human fibroblast (purchased from Dainippon Pharmaceutical Co., Ltd.) was determined by measuring the uptake amount of [^3 H]-thymidine.

[4] = A10, 1% FBS stimulation, 24 hours

Compound | IC50 [1] [µM] | IC50 ([2]; A10, 24 h) [µM] | IC50 [2, 4] [µM] | IC50 [3] [nM]
O=C(Nc1ccc2[nH]ccc2c1)c1nc2ccc(Cl)cc2n1Cc1ccccc1 [Example 2] | 0.02 | 0.4 | – | –
O=C(Nc1ccc2c(ccn2CCCn2cccn2)c1)c1nc2ccc(Cl)cc2n1Cc1ccccc1 [Example 6] | – | – | 0.66 | –
O=C(Nc1ccc2c(ccn2CCCn2cncn2)c1)c1nc2ccc(Cl)cc2n1Cc1ccccc1 [Example 7] | – | – | 0.49 | –
Cc1noc(C)c1C(=O)NCCCn1ccc2cc(NC(=O)c3nc4ccc(Cl)cc4n3Cc3ccccc3)ccc21 [Example 12] | – | – | 0.69 | –
CC(C)n1nnnc1Cn1ccc2cc(NC(=O)c3nc4ccc(Cl)cc4n3Cc3ccccc3)ccc21 [Example 16] | – | – | – | 49
CC(C)c1nccn1CCCn1ccc2cc(CNC(=O)c3nc4ccc(Cl)cc4n3Cc3ccccc3)ccc21 [Example 18] | – | – | 0.48 | –
O=C(Nc1ccc2c(c1)CCN2CCCN1CCC(O)(c2ccccc2)CC1)c1nc2ccc(Cl)cc2n1Cc1ccccc1 [Example 20] | 0.01 | 0.85 | – | –
O=C(Nc1ccc2[nH]ncc2c1)c1nc2ccc(Cl)cc2n1Cc1ccccc1 [Example 21] | 0.02 | – | – | –
CC(C)n1nnnc1CN1C(=O)CCc2cc(NC(=O)c3nc4ccc(Cl)cc4n3Cc3ccccc3)ccc21 [Example 45] | – | – | – | 41
O=C(Nc1ccc2[nH]c(=O)ccc2c1)c1nc2ccc(Cl)cc2n1Cc1ccccc1 [Example 46, 1-benzyl-6-chloro-2-[2(1H)-quinolinon-6-ylamino-caronyl]benzimidazole] | < 0.01 | – | – | –

Second part, led by results:

IC50 [1] [µM] | Compound | IC50 ([2]; A10, 24 h) [µM] | IC50 [2, 4] [µM] | IC50 [3] [nM]
0.06 | CN(CCCn1ccc2cc(NC(=O)c3nc4ccc(Cl)cc4n3Cc3ccccc3)ccc21)C1CCCCC1 [Example 4] | – | 0.3 | –
0.08 | COC(=O)n1ccc2cc(NC(=O)c3nc4ccc(Cl)cc4n3Cc3ccccc3)ccc21 [Example 9] | – | – | –
0.01 | O=C(NCCCn1ccc2cc(NC(=O)c3nc4ccc(Cl)cc4n3Cc3ccccc3)ccc21)c1cccnc1 [Example 11, 1-benzyl-6-chloro-2-{1-[3-(pyridin-3-ylcarbonylamino)propyl]indol-5-ylaminocarbonyl}benzimidazole] | – | 0.97 | –
0.12 | N#Cc1cccc(OCCCn2ccc3cc(NC(=O)c4nc5ccc(Cl)cc5n4Cc4ccccc4)ccc32)c1 [Example 25] | – | – | –
< 0.01 | O=C(NCCCN1CCc2cc(NC(=O)c3nc4ccc(Cl)cc4n3Cc3ccccc3)ccc21)c1ccc[nH]1 [Example 28] | – | – | –
< 0.01 | Cc1noc(C)c1C(=O)NCCCN1CCc2cc(NC(=O)c3nc4ccc(Cl)cc4n3Cc3ccccc3)ccc21 [Example 33] | – | 1.27 | 42
0.02 | O=C1CCc2cc(NC(=O)c3nc4ccc(Cl)cc4n3Cc3ccccc3)ccc2N1 [Example 41, 1-benzyl-6-chloro-2-(3,4-dihydro-2(1H)-quinolinon-6-ylaminocarbonyl)benzimidazole] | – | – | –
0.1 | C=CCN1C(=O)CCc2cc(NC(=O)c3nc4ccc(Cl)cc4n3Cc3ccccc3)ccc21 [Example 42] | – | 0.95 | –
0.014 | CN(C)CCN(C)CCCN1C(=O)CCc2cc(NC(=O)c3nc4ccc(Cl)cc4n3Cc3ccccc3)ccc21 [Example 44] | – | – | –
< 0.01 | O=C(NCCCN1CCOc2cc(NC(=O)c3nc4ccc(Cl)cc4n3Cc3ccccc3)ccc21)c1ccccn1 [Example 47] | – | 0.67 | 21
